Measurements reported in the supplement of paper PMC10307832.

Columns and labels:
Assay in all cases: relative viability (nuclei count vs DMSO), 5 days (fraction); higher = more cells survive
[1] = compound: O=c1[nH]cc(F)c(=O)[nH]1 [5-Fluorouracil] + COc1cc2c(Oc3ccc(NC(=O)C4(C(=O)Nc5ccc(F)cc5)CC4)cc3F)ccnc2cc1OCCCN1CCOCC1 [Foretinib] (partner 0.25 µM)
Summary of the method: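 Five library-drug doses in √10 steps were combined with a fixed anchor-drug dose, or a single drug was given alone, by pin tool to lung cancer cell lines in 1536-well plates the day after seeding. Nuclei were stained and counted after 5 days. Relative viability is the nuclei count in treated wells over that in vehicle wells, taken as the median of duplicate plates.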

Sulindac = compound: CC1=C(CC(=O)O)c2cc(F)ccc2/C1=C\c1ccc([S+](C)[O-])cc1 [Sulindac]
Summary of the method: (§1)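 Cells of lung cancer lines were placed in 1536-well plates and kept overnight at 37 °C. Pinning then delivered five library-drug doses (not always all listed), spaced by √10, onto plates anchored with vehicle, and the cells were left 5 days without changing medium. One step fixed, permeabilised and stained them with Hoechst, and MetaXpress counted nuclei in 4× images. Viability, as a median over plates, is treated-well nuclei divided by vehicle-well nuclei, with acceptance only at control CV below 25% and at least one doubling.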

Staurosporine = compound: CN[C@@H]1C[C@H]2O[C@@](C)([C@@H]1OC)n1c3ccccc3c3c4c(c5c6ccccc6n2c5c31)C(=O)NC4 [Staurosporine]
Summary of the method: as §1

5-Fluorouracil = compound: O=c1[nH]cc(F)c(=O)[nH]1 [5-Fluorouracil]
Summary of the method: as §1

Cell Line	relative viability ([1]; first compound 0.02 µM)	relative viability ([1]; first compound 0.2 µM)	relative viability ([1]; first compound 0.6325 µM)	relative viability ([1]; first compound 2 µM)	relative viability (Sulindac; 0.08 µM)	relative viability (Sulindac; 0.253 µM)	relative viability (Sulindac; 0.8 µM)	relative viability (Sulindac; 2.53 µM)	relative viability (Sulindac; 8 µM)	relative viability (Staurosporine; 0.005 µM)	relative viability (Staurosporine; 0.01581 µM)	relative viability (Staurosporine; 0.05 µM)	relative viability (Staurosporine; 0.1581 µM)	relative viability (Staurosporine; 0.5 µM)	relative viability (5-Fluorouracil; 0.02 µM)	relative viability (5-Fluorouracil; 0.2 µM)	relative viability (5-Fluorouracil; 0.6325 µM)	relative viability (5-Fluorouracil; 2 µM)
NCI-H1355	0.883	0.681	0.338	0.256	1.02	1.06	0.873	0.971	1.08	0.856	0.238	0.363	0.197	0.159	0.925	0.877	0.438	0.309
EKVX	0.707	0.321	0.177	0.149	1.05	1.01	0.832	0.941	1.08	0.758	0.417	0.351	0.256	0.146	0.835	0.312		0.176
NCI-H520	0.555	0.697	0.641	0.563	1.16	1.08	0.891	0.957	1.06	1.14	0.706	0.698	0.272	0.163	0.923	1.06	0.73	0.516
NCI-H1993	0.741	0.728	0.706	0.667	0.923	0.867	0.82	0.83	0.953	1.02	0.537	0.57	0.458	0.329	1.01	0.665	0.672	0.749
HCC-78	0.548	0.527	0.459	0.325	1.14	0.958	0.759	0.913	0.961	0.88	0.666	0.586	0.363	0.353	0.896	1.13	0.603	0.404
NCI-H2087	1.27	1.05	0.628	0.519	1.05	1.13	0.954	1.05	1.28	0.927	0.561	0.243	0.0918	0.0911	0.992	1.02	0.688	0.571
H3255	0.861	1.08	0.872	0.656	0.943	0.968	0.884	1	1.1	0.596	0.432	0.363	0.267	0.145	0.901	1.09	0.89	0.712
NCI-H2126	1.32	0.592	0.399	0.361	0.975	1.01	0.842	1.03	1.05	0.875	0.397	0.582	0.391	0.303	0.915	0.532	0.356	0.351
LC-2-ad	0.979	0.663	0.414	0.339	1.19	1.03	0.845	0.978	1.1	0.929	0.256	0.381	0.17	0.129	0.987	0.946	0.53	0.298
SK-LU-1	0.819	0.902	0.75	0.681	1.21	1.12	0.805	0.975	1.28	0.704	0.274	0.191	0.207	0.165	0.996	1.1	0.968	0.83
EBC-1	0.101	0.106	0.0923	0.108	1.12	1.14	0.705	1.09	1.1	0.623	0.395	0.239	0.2	0.12	1.03	0.979	0.934	0.619
HCC-15	1.13	0.961	0.583	0.351	1.14	1.07	0.843	0.986	1.13	0.92		0.636	0.137	0.119	1.04	1.11	0.711	0.413
NCI-H1563	0.927	0.909	0.862	0.761	0.898	0.973	0.936	0.967	1.14	0.724	0.592	0.542	0.547		0.952	1.01	1	0.815
COR-L 105	1.2	1.14	0.929	0.595	1.03	0.894	0.891	0.91	1.25	0.636	0.295	0.357	0.274	0.193	0.896	0.927	0.819	0.5
NCI-H647	1.25	1.32	0.997	0.796	1.32	1.15	0.791	0.898	1.11	0.546	0.317	0.295	0.0837	0.059	1	1.11	0.842	0.623
LU99A	0.752	0.851	0.693	0.488	1.02	0.982	0.922	0.845	1.09	0.912	0.569	0.422	0.211	0.131	0.943	0.999	0.845	0.624
NCI-H1703	0.341	0.383	0.341	0.348	1.11	1	0.915	0.917	1.26	0.512	0.291	0.186	0.161	0.112	1.17	0.999	0.848	0.562
NCI-H2170	1	0.872	0.537	0.44	1.13	1.03	0.884	1.06	0.991	1.07		0.766	0.384	0.161	1.02	0.88	0.529	0.464
